Each block holds one compound with its values, some of them ahead of it. Activity calls are given as the source filed them.
Assays:
[1] = biological target: T1, Intestinal-type alkaline phosphatase (Homo sapiens, UniProt P09923); assay: Dose Response confirmation of uHTS hits from a small molecule inhibitors of human intestinal alkaline phosphatase via a luminescent assay. [Related pubchem assays (depositor defined):AID2544, AID2574]; type: functional
[2] = biological target: T2, Alkaline phosphatase, tissue-nonspecific isozyme (Homo sapiens, UniProt P05186); assay: inhibition of tissue-nonspecific alkaline phosphatase – biochemical, dose response (AID 488882); type: functional
T2 sequence (P05186 whole entry): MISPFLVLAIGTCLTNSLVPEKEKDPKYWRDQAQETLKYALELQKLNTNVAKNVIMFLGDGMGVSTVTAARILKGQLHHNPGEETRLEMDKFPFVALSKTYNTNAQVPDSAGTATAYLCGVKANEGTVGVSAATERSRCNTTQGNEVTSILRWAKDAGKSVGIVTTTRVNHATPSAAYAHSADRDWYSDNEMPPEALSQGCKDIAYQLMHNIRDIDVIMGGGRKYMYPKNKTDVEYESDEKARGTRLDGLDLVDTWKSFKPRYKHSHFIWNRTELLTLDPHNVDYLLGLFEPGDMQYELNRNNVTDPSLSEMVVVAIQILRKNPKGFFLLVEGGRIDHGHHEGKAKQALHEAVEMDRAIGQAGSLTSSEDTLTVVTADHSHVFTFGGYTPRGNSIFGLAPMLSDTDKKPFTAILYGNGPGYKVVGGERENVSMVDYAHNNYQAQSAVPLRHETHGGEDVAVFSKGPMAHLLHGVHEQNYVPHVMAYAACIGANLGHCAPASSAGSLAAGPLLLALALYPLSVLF

[3] = biological target: T1, Intestinal-type alkaline phosphatase; assay: human IAP inhibitors, dose response, biochemical, luminescent, uHTS hits, set 2 (AID 488793); type: functional
[4] = biological target: T3, Intestinal-type alkaline phosphatase (Mus musculus, UniProt P24822); assay: PubChem AID 488874; type: functional
T3 sequence (P24822 whole entry): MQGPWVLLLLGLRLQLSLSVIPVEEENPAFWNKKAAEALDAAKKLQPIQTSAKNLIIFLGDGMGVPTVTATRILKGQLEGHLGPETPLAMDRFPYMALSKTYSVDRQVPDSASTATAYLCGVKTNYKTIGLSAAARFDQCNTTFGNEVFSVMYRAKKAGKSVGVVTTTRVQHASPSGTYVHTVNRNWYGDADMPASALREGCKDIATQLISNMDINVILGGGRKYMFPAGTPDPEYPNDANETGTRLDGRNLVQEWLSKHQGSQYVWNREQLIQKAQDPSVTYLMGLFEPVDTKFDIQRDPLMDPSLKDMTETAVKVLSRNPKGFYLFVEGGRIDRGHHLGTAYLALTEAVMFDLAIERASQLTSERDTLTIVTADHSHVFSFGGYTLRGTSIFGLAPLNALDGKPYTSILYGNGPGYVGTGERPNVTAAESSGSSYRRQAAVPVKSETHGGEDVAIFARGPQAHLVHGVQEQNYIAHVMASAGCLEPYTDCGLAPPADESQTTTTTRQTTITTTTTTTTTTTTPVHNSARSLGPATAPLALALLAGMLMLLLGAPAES

[5] = inhibitors of Trypanosoma cruzi host-cell infection, confirmation, beta-gal luminescence, NIH3T3 host cells (AID 2630); type: functional, cell-based; conditions: Mus musculus
[6] = biological target: Phosphomannomutase 2 (Homo sapiens, UniProt O15305); assay: Counter screen SAR assay for PMM2 inhibitors via a fluorescence intensity assay. [Related pubchem assays (depositor defined):AID1545, AID1574]
Sequence of Phosphomannomutase 2 (O15305 whole entry): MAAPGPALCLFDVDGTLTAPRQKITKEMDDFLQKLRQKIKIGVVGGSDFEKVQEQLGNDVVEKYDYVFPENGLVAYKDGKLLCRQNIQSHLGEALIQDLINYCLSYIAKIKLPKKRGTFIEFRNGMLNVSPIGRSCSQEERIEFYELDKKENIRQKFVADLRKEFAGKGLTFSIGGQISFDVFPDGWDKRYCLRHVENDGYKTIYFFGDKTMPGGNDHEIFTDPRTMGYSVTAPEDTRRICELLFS

[7] = biological target: T4, Leucine aminopeptidase (Plasmodium falciparum 3D7, UniProt Q8IL11); assay: P. falciparum M17LAP inhibitors, primary screen, biochemical, fluorogenic H-Leu-NHMec substrate, 1536-well (AID 1619); type: functional
T4 sequence (Q8IL11 whole entry): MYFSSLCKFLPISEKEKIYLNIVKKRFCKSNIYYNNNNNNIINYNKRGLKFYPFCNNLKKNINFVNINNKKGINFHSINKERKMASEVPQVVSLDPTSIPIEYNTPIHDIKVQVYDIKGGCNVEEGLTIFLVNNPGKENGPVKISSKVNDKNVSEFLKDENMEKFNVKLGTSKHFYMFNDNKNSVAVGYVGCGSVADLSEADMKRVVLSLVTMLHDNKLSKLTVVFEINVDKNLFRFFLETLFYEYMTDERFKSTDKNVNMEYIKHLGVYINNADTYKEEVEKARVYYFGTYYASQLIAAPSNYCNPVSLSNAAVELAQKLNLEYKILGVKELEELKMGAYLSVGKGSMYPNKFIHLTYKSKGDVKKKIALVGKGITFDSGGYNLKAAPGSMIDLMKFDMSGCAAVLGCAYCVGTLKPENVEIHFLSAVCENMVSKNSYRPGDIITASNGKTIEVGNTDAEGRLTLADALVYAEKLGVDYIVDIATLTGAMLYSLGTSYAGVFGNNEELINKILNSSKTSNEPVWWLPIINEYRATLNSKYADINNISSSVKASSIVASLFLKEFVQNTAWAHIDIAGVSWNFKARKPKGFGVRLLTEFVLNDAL

[8] = biological target: Procathepsin L (Homo sapiens, UniProt P07711); assay: cathepsin L inhibitors, dose response, counter-screen for M1/M17 aminopeptidase inhibitor project, biochemical, QFRET, 1536-well (AID 2214)
Sequence of Procathepsin L (P07711 whole entry): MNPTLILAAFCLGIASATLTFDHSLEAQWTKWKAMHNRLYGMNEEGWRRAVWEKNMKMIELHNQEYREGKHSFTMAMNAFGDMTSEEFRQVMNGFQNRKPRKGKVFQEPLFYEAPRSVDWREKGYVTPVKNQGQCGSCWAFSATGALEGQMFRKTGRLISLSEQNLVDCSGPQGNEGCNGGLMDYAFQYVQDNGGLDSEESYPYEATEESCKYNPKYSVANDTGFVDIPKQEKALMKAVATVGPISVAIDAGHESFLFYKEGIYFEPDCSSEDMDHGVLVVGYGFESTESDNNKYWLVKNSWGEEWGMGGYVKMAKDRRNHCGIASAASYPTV

[9] = biological target: T5, Aspartyl aminopeptidase (Plasmodium falciparum 3D7, UniProt Q8I2J3); assay: Counterscreen for inhibitors of M1 and M17 aminopeptidases: QFRET-based biochemical high throughput dose response assay for inhibitors of the Plasmodium falciparum M18 Aspartyl Aminopeptidase (PFM18AAP). [Related PubChem assays: 1619 (Screening assay (M17LAP inhibitors).), 1445 (Screening assay (M1AAP inhibitors).)]
T5 sequence (Q8I2J3 whole entry): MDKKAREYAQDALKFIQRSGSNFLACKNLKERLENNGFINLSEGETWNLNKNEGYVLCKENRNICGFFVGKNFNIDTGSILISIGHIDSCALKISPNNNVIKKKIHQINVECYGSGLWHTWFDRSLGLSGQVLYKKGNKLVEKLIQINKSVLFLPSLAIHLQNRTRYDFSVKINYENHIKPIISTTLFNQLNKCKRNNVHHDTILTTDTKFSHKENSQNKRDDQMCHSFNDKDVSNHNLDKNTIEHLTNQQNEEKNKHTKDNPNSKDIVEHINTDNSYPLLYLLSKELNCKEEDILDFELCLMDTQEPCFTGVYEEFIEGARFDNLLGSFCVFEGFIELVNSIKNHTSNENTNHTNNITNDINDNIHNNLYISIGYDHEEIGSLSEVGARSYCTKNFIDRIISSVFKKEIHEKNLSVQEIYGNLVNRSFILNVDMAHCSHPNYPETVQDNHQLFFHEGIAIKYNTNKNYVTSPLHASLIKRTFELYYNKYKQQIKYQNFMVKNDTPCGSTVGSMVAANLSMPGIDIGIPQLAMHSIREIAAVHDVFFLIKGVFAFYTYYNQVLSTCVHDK

[10] = test system: Escherichia coli; assay: microbe, parasite or virus in culture
[11] = biological target: T6, Mannose-6-phosphate isomerase (Homo sapiens, UniProt P34949); assay: PMI enzyme inhibitors, confirmation, biochemical, fluorescence intensity (AID 1535)
T6 sequence (P34949 whole entry): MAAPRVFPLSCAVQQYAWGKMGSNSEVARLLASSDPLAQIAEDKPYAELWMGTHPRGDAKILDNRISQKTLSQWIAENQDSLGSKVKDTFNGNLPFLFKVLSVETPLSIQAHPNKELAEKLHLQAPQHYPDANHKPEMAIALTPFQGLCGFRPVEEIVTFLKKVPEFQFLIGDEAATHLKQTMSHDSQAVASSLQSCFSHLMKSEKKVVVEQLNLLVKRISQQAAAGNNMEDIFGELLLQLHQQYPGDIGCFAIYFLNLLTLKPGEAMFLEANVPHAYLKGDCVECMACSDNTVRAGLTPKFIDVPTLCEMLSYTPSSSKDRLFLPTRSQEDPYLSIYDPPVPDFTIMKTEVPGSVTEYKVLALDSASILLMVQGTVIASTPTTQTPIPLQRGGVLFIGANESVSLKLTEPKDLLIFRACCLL

[12] = biological target: DNA dC->dU-editing enzyme APOBEC-3A (Homo sapiens, UniProt P31941); assay: APOBEC3A DNA deaminase inhibitors, dose response, biochemical (AID 504722); type: functional
Sequence of DNA dC->dU-editing enzyme APOBEC-3A (P31941 whole entry): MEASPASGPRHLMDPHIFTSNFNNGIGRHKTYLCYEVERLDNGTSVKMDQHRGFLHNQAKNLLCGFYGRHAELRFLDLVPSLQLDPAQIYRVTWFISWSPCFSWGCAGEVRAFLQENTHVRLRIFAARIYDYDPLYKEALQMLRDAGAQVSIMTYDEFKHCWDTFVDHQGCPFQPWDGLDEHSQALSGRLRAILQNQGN

[13] = biological target: T1, Intestinal-type alkaline phosphatase; assay: human intestinal alkaline phosphatase activators, dose response, biochemical, luminescence, uHTS hits (AID 463120); type: functional
[14] = biological target: T3, Intestinal-type alkaline phosphatase; assay: PubChem AID 488875; type: functional
[15] = biological target: T2, Alkaline phosphatase, tissue-nonspecific isozyme; assay: TNAP enzyme activators, dose response, selectivity assay for human IAP activator project, biochemical, TNAP isozyme, human IAP uHTS hits (AID 488886); type: functional;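 further: potency of compounds raising TNAP activity as a selectivity check on IAP activators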
[16] = biological target: T1, Intestinal-type alkaline phosphatase; assay: human IAP activators, dose response, biochemical, luminescent, uHTS hits, set 2 (AID 488817); type: functional;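 further: potency of activators that raise enzyme activity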

T1 sequence (P09923 whole entry): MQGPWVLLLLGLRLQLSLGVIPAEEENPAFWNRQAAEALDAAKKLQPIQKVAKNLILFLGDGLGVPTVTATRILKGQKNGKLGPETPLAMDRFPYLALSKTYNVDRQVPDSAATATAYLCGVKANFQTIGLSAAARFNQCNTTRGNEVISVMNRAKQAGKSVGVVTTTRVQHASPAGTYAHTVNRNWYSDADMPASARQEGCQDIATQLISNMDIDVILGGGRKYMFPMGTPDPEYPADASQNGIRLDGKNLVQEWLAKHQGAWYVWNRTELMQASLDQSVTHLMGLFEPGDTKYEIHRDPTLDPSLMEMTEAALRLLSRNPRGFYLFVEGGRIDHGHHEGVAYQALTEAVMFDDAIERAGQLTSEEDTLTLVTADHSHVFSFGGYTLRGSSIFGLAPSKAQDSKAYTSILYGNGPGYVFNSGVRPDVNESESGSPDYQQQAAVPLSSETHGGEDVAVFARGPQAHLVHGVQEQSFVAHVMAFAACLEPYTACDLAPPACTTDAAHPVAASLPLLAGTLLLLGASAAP

IC50 [1]: 23.1 µM (inactive)
IC50 [2]: 47.9 µM (active)
IC50 [3]: 23.4 µM (active)
IC50 [4]: > 100 µM (inactive)
SMILES: c1ccc(CSCCc2ccncc2)cc1

SMILES: CCn1cc(CN2CCCC(C(=O)c3cccc(C(F)(F)F)c3)C2)cn1 (stereo unspecified)
EC50 [5]: 0.25 µM (active)

SMILES: Sc1n[nH]c(-c2ccccc2Br)n1
IC50 [6]: > 100 µM (inactive)
IC50 [7]: 4.67 µM (active)
IC50 [8]: > 59.6 µM (not active)
IC50 [9]: 19.3 µM (not active)
AC50 [10]: 30.2 µM (active)
IC50 [11]: 37.6 µM (active)
IC50 [12]: > 100 µM (inactive)

EC50 [13]: 11.8 µM (active)
EC50 [14]: > 100 µM (inactive)
EC50 [15]: 11.8 µM (active)
EC50 [16]: 12.4 µM (active)
SMILES: COc1cc(OC)cc(C(=O)NNC(=O)c2nn(C)c(=O)c3ccccc23)c1

Source: ChEMBL document CHEMBL1201862, “PubChem BioAssay data set” (2004)
